Where “and” joins values, the source holds several entries; their conditions need not be identical. Equal entries are not always repeated.
Assays:
Type in all cases: cell-based, human
KCC3 pThr1048 = experiment: Immunoblot of KCC site 2 phosphorylation (KCC3 Thr1048) in HEK-293 cells transfected with FLAG-KCC3
KCC3 pThr991 = experiment: Immunoblot of KCC site 1 phosphorylation (KCC3 Thr991) in HEK-293 cells transfected with FLAG-KCC3
NKCC1 pThr203/207/212 = experiment: Immunoblot of NKCC1 p-Thr203/Thr207/Thr212 in HEK-293 cells
Procedure: (§1) Band intensities were quantitated with ImageJ software. ***p < 0.001; **p < 0.01; *p < 0.05; ns, nonsignificant [by one-way ANOVA with post hoc testing (n = 6, error bars represent the mean ± SEM)].
(§2) Thirty-six hours post transfection, cells were stimulated with either control isotonic or hypotonic medium for a period of 30 min. […] Protein concentrations were determined using the Bradford method. Cells were treated with the indicated concentrations of the SPAK/OSR1 inhibitors.

SPAK pSer373 = experiment: Immunoblot of SPAK/OSR1 p-Ser373/Ser325 in HEK-293 cells
Procedure: as §1, §2

[1] = Hypotonic low Cl, compound concentration 1 (unit not given)
[2] = Hypotonic low Cl, compound concentration 3 (unit not given)
[3] = Hypotonic low Cl, compound concentration 10 (unit not given)
[4] = Isotonic control, compound concentration 1 (unit not given)
[5] = Isotonic control, compound concentration 3 (unit not given)
[6] = Isotonic control, compound concentration 10 (unit not given)

Row | Compound | Site-2 phospho / KCC (KCC3 pThr1048; [1]) | Site-2 phospho / KCC (KCC3 pThr1048; [2]) | Site-2 phospho / KCC (KCC3 pThr1048; [3]) | Site-2 phospho / KCC (KCC3 pThr1048; [4]) | Site-2 phospho / KCC (KCC3 pThr1048; [5]) | Site-2 phospho / KCC (KCC3 pThr1048; [6]) | Site-1 phospho / KCC (KCC3 pThr991; [1]) | Site-1 phospho / KCC (KCC3 pThr991; [2]) | Site-1 phospho / KCC (KCC3 pThr991; [3]) | Site-1 phospho / KCC (KCC3 pThr991; [4]) | Site-1 phospho / KCC (KCC3 pThr991; [5]) | Site-1 phospho / KCC (KCC3 pThr991; [6]) | pThrNKCC1 / NKCC1 (NKCC1 pThr203/207/212; [1]) | pThrNKCC1 / NKCC1 (NKCC1 pThr203/207/212; [2]) | pThrNKCC1 / NKCC1 (NKCC1 pThr203/207/212; [3]) | pThrNKCC1 / NKCC1 (NKCC1 pThr203/207/212; [4]) | pThrNKCC1 / NKCC1 (NKCC1 pThr203/207/212; [6]) | pSer373 / SPAK (SPAK pSer373; [1]) | pSer373 / SPAK (SPAK pSer373; [2]) | pSer373 / SPAK (SPAK pSer373; [3]) | other results
1 | Cc1cc(C(C#N)c2ccc(Cl)cc2)c(Cl)cc1NC(=O)c1ccccc1O (stereo not shown) [ZT-1b] | 0.289 and 0.263 and 0.271 and 0.25 | 0.156 and 0.183 and 0.172 and 0.162 | 0.033 and 0.041 and 0.022 and 0.031 | 0.184 and 0.212 and 0.196 and 0.205 | 0.112 and 0.132 and 0.126 and 0.115 | 0.042 and 0.039 and 0.061 and 0.053 | 0.297 and 0.278 and 0.267 and 0.28 | 0.255 and 0.247 and 0.261 and 0.237 | 0.022 and 0.031 and 0.029 and 0.035 | 0.198 and 0.201 and 0.187 and 0.21 | 0.167 and 0.17 and 0.155 and 0.16 | 0.095 and 0.121 and 0.114 and 0.104 | 0.309 and 0.287 and 0.264 and 0.27 | 0.122 and 0.114 and 0.1313 and 0.117 | 0.011 and 0.0109 and 0.016 and 0.013 | 0.127 and 0.118 and 0.126 and 0.123 | 0.009 and 0.007 and 0.005 and 0.006 | 0.301 and 0.286 and 0.291 and 0.316 | 0.183 and 0.156 and 0.163 and 0.175 | 0.078 and 0.061 and 0.055 and 0.065 | pThrNKCC1 / NKCC1 (NKCC1 pThr203/207/212; [5]): 0.034 and 0.041 and 0.048 and 0.043; pSer373 / SPAK (SPAK pSer373; [4]): 0.103 and 0.127 and 0.137 and 0.117; pSer373 / SPAK (SPAK pSer373; [5]): 0.087 and 0.09 and 0.06 and 0.076; pSer373 / SPAK (SPAK pSer373; [6]): 0.055 and 0.039 and 0.041 and 0.047
2 | Cc1cc(C(C#N)c2ccc(Cl)cc2)c(Cl)cc1NC(=O)c1cc(Cl)cc(Cl)c1O (stereo not shown) [ZT-1f] | 0.535 and 0.483 and 0.512 and 0.467 | 0.341 and 0.264 and 0.311 and 0.293 | 0.109 and 0.131 and 0.09 and 0.115 | 0.486 and 0.369 and 0.411 and 0.451 | 0.191 and 0.175 and 0.185 and 0.163 | 0.073 and 0.097 and 0.081 and 0.092 | 0.591 and 0.61 and 0.578 and 0.662 | 0.501 and 0.522 and 0.538 and 0.551 | 0.304 and 0.287 and 0.249 and 0.4315 | 0.52 and 0.572 and 0.465 and 0.481 | 0.476 and 0.441 and 0.483 and 0.501 | 0.412 and 0.386 and 0.366 and 0.392 | 0.511 and 0.43 and 0.48 and 0.55 | 0.144 and 0.139 and 0.1273 and 0.131 | 0.029 and 0.031 and 0.039 and 0.026 | 0.187 and 0.123 and 0.15 and 0.173 | 0.009 and 0.011 and 0.016 and 0.012 | 0.49 and 0.51 and 0.58 and 0.552 | 0.255 and 0.215 and 0.1963 and 0.207 | 0.059 and 0.041 and 0.05 and 0.046 | pSer373 / SPAK (SPAK pSer373; [4]): 0.221 and 0.274 and 0.241 and 0.291; pSer373 / SPAK (SPAK pSer373; [5]): 0.101 and 0.09 and 0.083 and 0.121; pSer373 / SPAK (SPAK pSer373; [6]): 0.031 and 0.026 and 0.028
3 | Cc1cc(C(C#N)c2ccc(Cl)cc2)c(Cl)cc1NC(=O)c1ccccc1S (stereo not shown) [ZT-1c] | 0.497 and 0.455 and 0.548 and 0.508 | 0.209 and 0.276 and 0.192 and 0.234 | 0.048 and 0.058 and 0.04 and 0.032 | 0.476 and 0.401 and 0.516 and 0.551 | 0.214 and 0.265 and 0.187 and 0.198 | 0.065 and 0.051 and 0.044 and 0.058 | 1.35 and 1.471 and 1.65 and 1.51 | 1.55 and 1.21 and 1.48 and 1.3 | 1.012 and 0.998 and 0.867 and 0.921 | 1.231 and 1.321 and 1.543 and 1.43 | 1.091 and 0.991 and 0.86 and 0.91 | 0.761 and 0.69 and 0.81 and 0.61 | 1.123 and 1.265 and 1.316 and 1.19 | 0.587 and 0.521 and 0.402 and 0.467 | 0.215 and 0.209 and 0.187 and 0.193 | 0.43 and 0.561 and 0.501 and 0.592 | 0.05 and 0.036 and 0.066 and 0.049 | 0.203 and 0.196 and 0.2213 and 0.215 | 0.112 and 0.125 and 0.103 and 0.117 | 0.032 and 0.051 and 0.046 and 0.039 | pSer373 / SPAK (SPAK pSer373; [4]): 0.122 and 0.112 and 0.129 and 0.116; pSer373 / SPAK (SPAK pSer373; [5]): 0.075 and 0.062 and 0.048 and 0.057; pSer373 / SPAK (SPAK pSer373; [6]): 0.036 and 0.024 and 0.031 and 0.029
4 | Cc1cc(C(C#N)c2ccc(Cl)cc2)c(Cl)cc1NC(=O)c1ccccc1N (stereo not shown) [ZT-1d] | 0.37 and 0.41 and 0.35 and 0.482 | 0.29 and 0.25 and 0.23 and 0.287 | 0.105 and 0.124 and 0.08 and 0.117 | 0.412 and 0.477 and 0.43 and 0.521 | 0.209 and 0.165 and 0.191 and 0.177 | 0.108 and 0.08 and 0.114 and 0.094 | 0.516 and 0.487 and 0.55 and 0.508 | 0.509 and 0.49 and 0.511 and 0.521 | 0.276 and 0.218 and 0.234 and 0.258 | 0.49 and 0.471 and 0.48 and 0.466 | 0.355 and 0.36 and 0.38 and 0.371 | 0.218 and 0.232 and 0.255 and 0.241 | 0.46 and 0.429 and 0.413 and 0.49 | 0.27 and 0.21 and 0.203 and 0.251 | 0.11 and 0.077 and 0.102 and 0.085 | 0.313 and 0.307 and 0.286 and 0.297 | 0.055 and 0.031 and 0.042 and 0.047 | 0.19 and 0.21 and 0.18 and 0.207 | 0.131 and 0.12 and 0.103 and 0.116 | 0.04 and 0.025 and 0.035 and 0.031 | pThrNKCC1 / NKCC1 (NKCC1 pThr203/207/212; [5]): 0.143 and 0.119 and 0.09 and 0.126; pSer373 / SPAK (SPAK pSer373; [4]): 0.11 and 0.119 and 0.109 and 0.101; pSer373 / SPAK (SPAK pSer373; [5]): 0.072 and 0.065 and 0.051 and 0.063; pSer373 / SPAK (SPAK pSer373; [6]): 0.022 and 0.031 and 0.038 and 0.028
